Experimental findings from ChEMBL document CHEMBL3046431, “Novel 4H-1,2,4-triazol-3-yl cycloalkanols as potent antitubercular agents” (Med Chem Res, 2013) are described below.

Converted amounts (≈) assume the structure as drawn.

Data set [1] in a line: Selectivity index, ratio of CC50 for african green monkey Vero C1008 cells to MIC for Mycobacterium tuberculosis H37Rv. The following applies: read-out: Selectivity Index. In kind it is toxicity, cell-based.
Data set [2] in a line: Cytotoxicity against Chlorocebus aethiops (African green monkey) Vero C1008 cells assessed as cell viability after 72 hr by MTT assay. The format is cell-based. The following applies: chlorocebus sabaeus. A general note: Tetrazolium dyes change colour on reduction, which living cells bring about.
In data set [3] the test system is Mycobacterium tuberculosis. The data set can be described thus: Antitubercular activity against Mycobacterium tuberculosis H37Rv assessed as growth inhibition after 7 days by resazurin microplate assay. The format is functional. The following applies: 168 h. In general terms: Resazurin is reduced to fluorescent resorufin, in cell work by metabolically active cells.

By CC50 is commonly meant the concentration at which the toxic effect on the cells reaches its halfway point. A word on the MIC: it is the least concentration at which growth counts as inhibited. In the case of `Cc1csc(-c2nnc(C3(O)C4CC5CC(C4)CC3C5)[nH]2)c1` (stereo unspecified), the selectivity ratio in data set [1] is 84. In data set [2], the CC50 at 72 h was 356 µg/mL (≈ 1130 µM). In data set [3], the MIC was 4.25 µg/mL (≈ 13.5 µM).
The matching figures for `CC1CCC(O)(c2nnc(-c3ccncc3)[nH]2)CC1` (stereo unspecified): 424, 403 µg/mL (≈ 1560 µM) and 0.95 µg/mL (≈ 3.68 µM).
Turning to `CC1CCC(O)(c2nnc(-c3ccccc3)[nH]2)CC1` (stereo unspecified), the selectivity ratio in data set [1] stood at 28. Moreover, the cytotoxic concentration (CC50) at 72 h in data set [2] is 437 µg/mL (≈ 1700 µM). Further, the MIC in data set [3] was 15.5 µg/mL (≈ 60.2 µM).
The corresponding values for `Cc1nnc(C2(O)CCCCC2)[nH]1` are 63, 392 µg/mL (≈ 2160 µM) and 6.25 µg/mL (≈ 34.5 µM).
The matching figures for `Cc1nnc(C2(O)CC(C)CC(C)(C)C2)[nH]1` (stereo unspecified): 84, 380 µg/mL (≈ 1700 µM) and 4.5 µg/mL (≈ 20.2 µM).
The corresponding values for `Cc1nnc(C(O)C2CC=CCC2)[nH]1` (stereo unspecified) are 62, 318 µg/mL (≈ 1650 µM) and 5.15 µg/mL (≈ 26.6 µM).
On to `Cc1nnc(C(O)C2CCC(O)C(O)C2)[nH]1` (stereo unspecified), for which, in data set [1], the selectivity ratio came to 116. Also, the 50% cytotoxic concentration (CC50) at 72 h in data set [2] turned out to be 378 µg/mL (≈ 1660 µM). Further, the minimal inhibitory concentration (MIC) in data set [3] is 3.25 µg/mL (≈ 14.3 µM).
The matching figures for `Oc1ccc(-c2nnc(C3(O)CCCC3)[nH]2)cc1`: 108, 347 µg/mL (≈ 1410 µM) and 3.2 µg/mL (≈ 13 µM).
On to `OC1(c2nnc(-c3ccncc3)[nH]2)CCCC1`, for which, in data set [1], the selectivity ratio was determined as 490. The CC50 at 72 h in data set [2] worked out at 382 µg/mL (≈ 1660 µM). In data set [3], the MIC amounted to 0.78 µg/mL (≈ 3.39 µM).
The corresponding values for `OC1(c2nnc(-c3ccccc3)[nH]2)CCCCC1` are 34, 422 µg/mL (≈ 1730 µM) and 12.4 µg/mL (≈ 50.8 µM).
Turning to `Oc1ccc(-c2nnc(C3(O)CCCCC3)[nH]2)cc1`, the selectivity ratio in data set [1] was determined as 45. The CC50 at 72 h in data set [2] worked out at 340 µg/mL (≈ 1310 µM). The MIC in data set [3] is 7.5 µg/mL (≈ 28.9 µM).
The matching figures for `OC1(c2nnc(-c3ccncc3)[nH]2)CCCCC1`: 698, 412 µg/mL (≈ 1690 µM) and 0.59 µg/mL (≈ 2.42 µM).
For the compound `OC1(c2nnc(-c3cccnc3)[nH]2)CCCCC1`, the selectivity ratio in data set [1] came to 88. Further, the half-maximal cytotoxic concentration (CC50) at 72 h in data set [2] is 397 µg/mL (≈ 1630 µM). Moreover, the minimum inhibitory concentration (MIC) in data set [3] was 4.5 µg/mL (≈ 18.4 µM).
For the compound `Cc1csc(-c2nnc(C3(O)CCCCC3)[nH]2)c1`, the selectivity ratio in data set [1] turned out to be 226. The 50% cytotoxic concentration (CC50) at 72 h in data set [2] is 373 µg/mL (≈ 1420 µM). In addition, the minimum inhibitory concentration (MIC) in data set [3] stood at 1.65 µg/mL (≈ 6.27 µM).
On to `CC1CC(C)(C)CC(O)(c2nnc(-c3ccccc3)[nH]2)C1` (stereo unspecified), for which the selectivity ratio in data set [1] turned out to be 25. Moreover, in data set [2], the CC50 at 72 h is 383 µg/mL (≈ 1340 µM). Moreover, in data set [3], the minimum inhibitory concentration (MIC) stood at 15.4 µg/mL (≈ 53.8 µM).
`CC1CC(C)(C)CC(O)(c2nnc(-c3ccc(O)cc3)[nH]2)C1` (stereo unspecified): in data set [1], the selectivity ratio stood at 33. The CC50 at 72 h in data set [2] is 352 µg/mL (≈ 1170 µM). In data set [3], the MIC stood at 10.5 µg/mL (≈ 34.8 µM).
The matching figures for `CC1CC(C)(C)CC(O)(c2nnc(-c3ccncc3)[nH]2)C1` (stereo unspecified): 637, 414 µg/mL (≈ 1450 µM) and 0.65 µg/mL (≈ 2.27 µM).
The matching figures for `CC1CC(C)(C)CC(O)(c2nnc(-c3cccnc3)[nH]2)C1` (stereo unspecified): 29, 368 µg/mL (≈ 1290 µM) and 12.5 µg/mL (≈ 43.6 µM).
In the case of `OC(c1nnc(-c2ccccc2)[nH]1)C1CC=CCC1` (stereo unspecified), the selectivity ratio in data set [1] came to 29. In addition, in data set [2], the half-maximal cytotoxic concentration (CC50) at 72 h is 358 µg/mL (≈ 1400 µM). Further, the MIC in data set [3] stood at 12.5 µg/mL (≈ 49 µM).
The matching figures for `OC(c1nnc(-c2ccncc2)[nH]1)C1CC=CCC1` (stereo unspecified): 310, 388 µg/mL (≈ 1510 µM) and 1.25 µg/mL (≈ 4.88 µM).
Take `OC(c1nnc(-c2cccnc2)[nH]1)C1CC=CCC1` (stereo unspecified): the selectivity ratio in data set [1] is 44. Also, the CC50 at 72 h in data set [2] turned out to be 371 µg/mL (≈ 1450 µM). The MIC in data set [3] came out at 8.5 µg/mL (≈ 33.2 µM).
Regarding `OC1CCC(C(O)c2nnc(-c3ccccc3)[nH]2)CC1O` (stereo unspecified), the selectivity ratio in data set [1] was determined as 55. For the same compound, the CC50 at 72 h in data set [2] was 429 µg/mL (≈ 1480 µM). Further, the MIC in data set [3] was 7.75 µg/mL (≈ 26.8 µM).
The corresponding values for `OC1CCC(C(O)c2nnc(-c3ccncc3)[nH]2)CC1O` (stereo unspecified) are 477, 429 µg/mL (≈ 1480 µM) and 0.9 µg/mL (≈ 3.1 µM).
For `NNC(=O)c1ccncc1` [ISONIAZID], in data set [1], the selectivity ratio came to 499. Further, the MIC in data set [3] amounted to 0.4 µg/mL (≈ 2.92 µM).
